Data published in patent publication US20240368163A1, “COMPOUNDS AND METHODS FOR MODULATING SPLICING” (REMIX THERAPEUTICS INC., priority 2021, published 2024).

What was measured:
Format in all cases: cell-based, human
HTT [1] = assay: Splicing RT-qPCR assay, HTT mRNA canonical junction (CJ) and alternative junction (AJ); details: Homo sapiens, gene panel, CJ qPCR, protocol of Example 142; read-out: HTT IC50 (decrease in CJ mRNA levels)
Summary of the method: (§1)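 A673 or K562 cells treated 24 h at 37 °C with 11-point 3-fold dilutions, top 10 uM, DMSO ≤0.25%. Lysates read by RT-qPCR for CJ and AJ isoforms, normalized to GAPDH, GUSB or PPIA; ΔΔCt vs DMSO converted to RQ, then percent response.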

Target C [2] = assay: Splicing RT-qPCR panel, Target C canonical junction (CJ) mRNA; details: Homo sapiens, gene panel, CJ qPCR, protocol of Example 142; read-out: Target C IC50 (decrease in CJ mRNA levels)
Summary of the method: as §1

Target C [3] = assay: HiBiT protein abundance assay, Target C; details: Homo sapiens, K562, 24 h, Table 13B, modified K562 cells
Summary of the method: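 Cells carrying the HiBiT knock-in were plated at 10000 cells/well, dosed with compound (10-point, 3-fold, 10 μM top final) and incubated 24 hours at 37 °C. Lytic reagent was then added and luminescence read. Percent response fed a 4PL fit for IC50.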

MYB [4] = assay: HiBiT protein abundance assay, MYB; details: Homo sapiens, K562, 24 h, Table 13B, modified K562 cells
Summary of the method: (§2)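 Target abundance was measured as HiBiT luminescence after 24 h compound treatment of tagged K562 cells. Responses were normalized between unmodified K562 and DMSO-treated tagged cells, and IC50 taken at the 50% level of a 4PL curve.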

MYB [5] = assay: Splicing RT-qPCR assay, MYB mRNA canonical junction (CJ) and alternative junction (AJ); details: Homo sapiens, gene panel, CJ qPCR, protocol of Example 142; read-out: MYB IC50 (decrease in CJ mRNA levels)
Summary of the method: as §1

SMN2 = assay: Splicing RT-qPCR panel, SMN2 canonical junction (CJ) mRNA; details: Homo sapiens, gene panel, CJ qPCR, protocol of Example 142; read-out: SMN2 IC50 (decrease in CJ mRNA levels)
Summary of the method: as §1

HTT [6] = assay: HiBiT protein abundance assay, HTT; details: Homo sapiens, K562, 24 h, Table 13B, modified K562 cells
Summary of the method: as §2

Row | SMILES | IC50 (HTT [1]) | IC50 (Target C [2]) | IC50 (Target C [3]) | IC50 (MYB [4]) | IC50 (MYB [5]) | IC50 (SMN2) | IC50 (HTT [6])
1 | COc1cnc(-c2ccc(-c3ccc(N(C)[C@@H]4C[C@H]5CC[C@@H](C4)N5)nn3)nc2OC)cn1 [Compound 951] | 0.1 to 1 µM | 0.1 to 1 µM | 0.1 to 1 µM | 0.1 to 1 µM | 0.1 to 1 µM | 0.1 to 1 µM | < 0.1 µM
2 | COc1nc(-c2ccc(N3CCC(NC(C)(C)C)C3)nn2)ccc1-n1cccn1 (centres unmarked) [Compound 957] | 1 to 10 µM | 1 to 10 µM | 1 to 10 µM | 1 to 10 µM | 1 to 10 µM | 1 to 10 µM | 1 to 10 µM
3 | COc1nc(-c2ccc(N3CCC(NC4CC4)C3)nn2)ccc1-n1cccn1 (centres unmarked) [Compound 958] | > 10 µM | > 10 µM | > 10 µM | > 10 µM | > 10 µM | 1 to 10 µM | > 10 µM
4 | COc1cc(-c2ccc(-c3ccc(N(C)[C@@H]4C[C@H]5CC[C@@H](C4)N5)nn3)nc2OC)cnn1 [Compound 959] | < 0.1 µM | 0.1 to 1 µM | 0.1 to 1 µM | 0.1 to 1 µM | 0.1 to 1 µM | < 0.1 µM | < 0.1 µM
5 | COc1nc(-c2ccc(N(C)[C@@H]3C[C@H]4CC[C@@H](C3)N4)nn2)ccc1-c1cnnc(C)c1 [Compound 960] | 1 to 10 µM | 1 to 10 µM | > 10 µM | 1 to 10 µM | 1 to 10 µM | 0.1 to 1 µM | 1 to 10 µM
6 | COc1nc(-c2ccc(O[C@@H]3C[C@H]4CC[C@@H](C3)N4)nn2)ccc1-c1ccnc(C)c1 [Compound 963] | 1 to 10 µM | > 10 µM | > 10 µM | 1 to 10 µM | 1 to 10 µM | 1 to 10 µM | 1 to 10 µM
7 | COc1nc(-c2ccc(OC3CC4CC(F)(F)C(C3)N4)nn2)ccc1-c1ccnc(C)c1 (centres unmarked) [Compound 964] | > 10 µM | > 10 µM | > 10 µM | > 10 µM | > 10 µM | > 10 µM | > 10 µM
8 | CC1(C)CC(Oc2ccc(-c3ccc(-c4cn[nH]c4)c(OC4CC4)n3)nn2)CC(C)(C)N1 [Compound 968] | 0.1 to 1 µM | 1 to 10 µM | 1 to 10 µM | 1 to 10 µM | 1 to 10 µM | 0.1 to 1 µM | 0.1 to 1 µM
9 | CCOc1nc(-c2ccc(OC3CC4CC(F)(F)C(C3)N4)nn2)ccc1-c1cn[nH]c1 (centres unmarked) [Compound 970] | > 10 µM | > 10 µM | > 10 µM | > 10 µM | > 10 µM | 1 to 10 µM | > 10 µM
10 | COc1nc(-c2ccc(OC3CC4CC(F)(F)C(C3)N4)nn2)ccc1C1C=CC(F)=C1 (centres unmarked) [Compound 971] | 1 to 10 µM | 1 to 10 µM | 1 to 10 µM | 1 to 10 µM | 1 to 10 µM | 1 to 10 µM | 1 to 10 µM
11 | COc1cc(-c2ccc(N3CCC(NC(C)(C)C)C3)nn2)ncc1-n1cccn1 (centres unmarked) [Compound 972] | 0.1 to 1 µM | 1 to 10 µM | 1 to 10 µM | 1 to 10 µM | 1 to 10 µM | 0.1 to 1 µM | 0.1 to 1 µM
12 | COc1nc(-c2ccc(N(C)[C@@H]3C[C@H]4CC[C@@H](C3)N4)cn2)ccc1-c1cn[nH]c1 [Compound 978] | > 10 µM | > 10 µM | > 10 µM | 1 to 10 µM | > 10 µM | > 10 µM | 1 to 10 µM
13 | COc1nc(-c2ccc(N(C)[C@@H]3C[C@H]4CC[C@@H](C3)N4)nc2)ccc1-c1cn[nH]c1 [Compound 979] | < 0.1 µM | 0.1 to 1 µM | < 0.1 µM | 0.1 to 1 µM | 0.1 to 1 µM | < 0.1 µM | < 0.1 µM
14 | COc1nc(-c2cnc(N(C)[C@@H]3C[C@H]4CC[C@@H](C3)N4)cn2)ccc1-c1cn[nH]c1 [Compound 980] | 1 to 10 µM | 1 to 10 µM | 1 to 10 µM | 1 to 10 µM | 1 to 10 µM | > 10 µM | 1 to 10 µM
